# Results from patent publication US10208081B2, “Bile acid derivatives as FXR/TGR5 agonists and methods of use thereof” (Enanta Pharmaceuticals, Inc., priority 2014, dated 2019).
# Biological target: human FXR (NR1H4) (Homo sapiens (Human), UniProt Q96RI1)
# Experiment: Human FXR (NR1H4) Assay (Gal4 promoter driven luciferase reporter, Indigo Bioscience kit IB00601)
# Format: cell-based
# Conditions: for Efficacy (%): efficacy normalized to CDCA set as 100%; for EC50: potency ranges
# Text: Assays Human FXR (NR1H4) Assay
# Determination of a ligand mediated Gal4 promoter driven transactivation quantify ligand binding mediated activation of FXR. FXR Reporter Assay kit purchased from Indigo Bioscience (Catalogue number: IB00601) to determine the potency and efficacy of compound developed by Enanta that can induce FXR activation. The principle application of this reporter assay system is to quantify functional activity of human FXR. The assay utilizes non-human mammalian cells, CHO (Chinese hamster ovary) cells engineered to express human NR1H4 protein (referred to as FXR). Reporter cells also incorporate the cDNA encoding beetle luciferase which catalyzes the substrates and yields photon emission. Luminescence intensity of the reaction is quantified using a plate-reading luminometer, Envision. Reporter Cells include the luciferase reporter gene functionally linked to an FXR responsive promoter. Thus, quantifying changes in luciferase expression in the treated reporter cells provides a sensitive surrogate measure of the changes in FXR activity. […] The assay is according to the manufacturer's instructions. In brief, the assay was performed in white, 96 well plates using final volume of 100 ul containing cells with different doses of compounds. Retrieve Reporter Cells from −80° C. storage. Perform a rapid thaw of the frozen cells by transferring a 10 ml volume of 37° C. cell recovery medium into the tube of frozen cells. Recap the tube of Reporter Cells and immediately place it in a 37° C. water bath for 5-10 minutes. Retrieve the tube of Reporter Cell Suspension from the water bath. Sanitize the outside surface of the tube with a 70% alcohol swab, and then transfer it into the cell culture hood. Dispense 90 μl of cell suspension into each well of the 96-well Assay Plate. Transfer the plate into 37° C. incubator, allowing the cells adherent to the bottom of the well. Dilute compounds in Dilution Plate (DP), and administrate to cells at Assay Plate (AP). DMSO content of the samples was kept at 0.2%. Cells were incubated for additional 22 hours before luciferase activities were measured. Thirty minutes before intending to quantify FXR activity, remove Detection Substrate and Detection Buffer from the refrigerator and place them in a low-light area so that they may equilibrate to room temperature. Remove the plate's lid and discard all media contents by ejecting it into an appropriate waste container. Gently tap the inverted plate onto a clean absorbent paper towel to remove residual droplets. Cells will remain tightly adhered to well bottoms. Add 100 μl of luciferase detection reagent to each well of the assay plate. Allow the assay plate to rest at room temperature for at least 5 minutes following the addition of LDR. Set the instrument (Envision) to perform a single 5 second “plate shake” prior to reading the first assay well. Read time may be 0.5 second (500 mSec) per well.
# human FXR (NR1H4), sequence (Q96RI1 whole entry, the tested form may be a part): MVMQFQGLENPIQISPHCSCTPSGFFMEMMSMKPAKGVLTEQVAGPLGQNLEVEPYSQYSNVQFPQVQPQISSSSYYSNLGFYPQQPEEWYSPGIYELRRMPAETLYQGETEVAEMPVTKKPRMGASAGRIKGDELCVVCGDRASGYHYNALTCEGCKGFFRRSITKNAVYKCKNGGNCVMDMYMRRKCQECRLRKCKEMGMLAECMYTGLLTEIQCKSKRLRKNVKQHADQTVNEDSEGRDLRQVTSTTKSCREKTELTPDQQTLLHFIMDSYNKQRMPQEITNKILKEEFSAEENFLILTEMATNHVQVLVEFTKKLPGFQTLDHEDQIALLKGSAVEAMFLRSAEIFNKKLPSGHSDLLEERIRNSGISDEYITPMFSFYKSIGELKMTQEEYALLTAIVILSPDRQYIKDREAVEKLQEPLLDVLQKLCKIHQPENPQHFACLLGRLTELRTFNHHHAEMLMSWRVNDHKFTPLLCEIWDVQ
SMILES,Efficacy (%),EC50 [µM]
CC[C@H]1[C@@H](O)[C@@H]2[C@H](CC[C@]3(C)[C@@H]([C@H](C)CCNC(=O)NS(=O)(=O)C4CC5CCC4C5)CC[C@@H]23)[C@@]2(C)CC[C@@H](O)C[C@@H]12 (stereo partly shown) [Example 76],290,< 0.1
CC[C@H]1[C@@H](O)[C@@H]2[C@H](CC[C@]3(C)[C@@H]([C@H](C)CCNC(=O)NS(=O)(=O)c4ccc(-c5cnc(C)o5)cc4C)CC[C@@H]23)[C@@]2(C)CC[C@@H](O)C[C@@H]12 [Example 79],249,0.1 to 1
CC[C@H]1[C@@H](O)[C@@H]2[C@H](CC[C@]3(C)[C@@H]([C@H](C)CCNC(=O)NS(=O)(=O)c4cccc(-c5nc(C)cs5)c4)CC[C@@H]23)[C@@]2(C)CC[C@@H](O)C[C@@H]12 [Example 80],295,0.1 to 1
CC[C@H]1[C@@H](O)[C@@H]2[C@H](CC[C@]3(C)[C@@H]([C@H](C)CCNC(=O)NS(=O)(=O)N4CC(F)(F)C(F)(F)C4)CC[C@@H]23)[C@@]2(C)CC[C@@H](O)C[C@@H]12 [Example 81],315,< 0.1
CC[C@H]1[C@@H](O)[C@@H]2[C@H](CC[C@]3(C)[C@@H]([C@H](C)CCNC(=O)NS(=O)(=O)N4C[C@@H](C)O[C@H](C)C4)CC[C@@H]23)[C@@]2(C)CC[C@@H](O)C[C@@H]12 [Example 82],321,< 0.1
CC[C@H]1[C@@H](O)[C@@H]2[C@H](CC[C@]3(C)[C@@H]([C@H](C)CCNC(=O)NS(=O)(=O)N4CCS(=O)(=O)CC4)CC[C@@H]23)[C@@]2(C)CC[C@@H](O)C[C@@H]12 [Example 83],348,1 to 10
CC[C@H]1[C@@H](O)[C@@H]2[C@H](CC[C@]3(C)[C@@H]([C@H](C)CCNC(=O)NS(=O)(=O)N4CCN(C(C)(C)C)CC4)CC[C@@H]23)[C@@]2(C)CC[C@@H](O)C[C@@H]12 [Example 84],351,0.1 to 1
CC[C@H]1[C@@H](O)[C@@H]2[C@H](CC[C@]3(C)[C@@H]([C@H](C)CCNC(=O)NS(=O)(=O)N4CCN(C(=O)C(C)(C)C)CC4)CC[C@@H]23)[C@@]2(C)CC[C@@H](O)C[C@@H]12 [Example 85],324,0.1 to 1
CC[C@H]1[C@@H](O)[C@@H]2[C@H](CC[C@]3(C)[C@@H]([C@H](C)CCNC(=O)NS(=O)(=O)N4CCC5(CC4)CC5)CC[C@@H]23)[C@@]2(C)CC[C@@H](O)C[C@@H]12 [Example 86],390,< 0.1
CC[C@H]1[C@@H](O)[C@@H]2[C@H](CC[C@]3(C)[C@@H]([C@H](C)CCNC(=O)NS(=O)(=O)C4CCC(C(C)(C)C)CC4)CC[C@@H]23)[C@@]2(C)CC[C@@H](O)C[C@@H]12 (stereo partly shown) [Example 88],378,< 0.1
CC[C@H]1[C@@H](O)[C@@H]2[C@H](CC[C@]3(C)[C@@H]([C@H](C)CCNC(=O)NS(=O)(=O)C4CCC(F)(F)CC4)CC[C@@H]23)[C@@]2(C)CC[C@@H](O)C[C@@H]12 [Example 89],351,< 0.1
CCCCS(=O)(=O)NC(=O)NCC[C@@H](C)[C@H]1CC[C@H]2[C@@H]3[C@H](O)[C@H](CC)[C@@H]4C[C@H](O)CC[C@]4(C)[C@H]3CC[C@]12C [Example 90],407,< 0.1
CC[C@H]1[C@@H](O)[C@@H]2[C@H](CC[C@]3(C)[C@@H]([C@H](C)CCNC(=O)NS(=O)(=O)N(C)C)CC[C@@H]23)[C@@]2(C)CC[C@@H](O)C[C@@H]12 [Example 91],399,< 0.1
CC[C@H]1[C@@H](O)[C@@H]2[C@H](CC[C@]3(C)[C@@H]([C@H](C)CCNC(=O)NS(=O)(=O)c4c(F)c(F)c(F)c(F)c4F)CC[C@@H]23)[C@@]2(C)CC[C@@H](O)C[C@@H]12 [Example 92],325,1 to 10
CC[C@H]1[C@@H](O)[C@@H]2[C@H](CC[C@]3(C)[C@@H]([C@H](C)CCNC(=O)NS(=O)(=O)c4ccc(C)cc4)CC[C@@H]23)[C@@]2(C)CC[C@@H](O)C[C@@H]12 [Example 93],443,< 0.1
CC[C@H]1[C@@H](O)[C@@H]2[C@H](CC[C@]3(C)[C@@H]([C@H](C)CCNC(=O)NS(=O)(=O)c4ccc(F)cc4)CC[C@@H]23)[C@@]2(C)CC[C@@H](O)C[C@@H]12 [Example 94],361,< 0.1
CC[C@H]1[C@@H](O)[C@@H]2[C@H](CC[C@]3(C)[C@@H]([C@H](C)CCNC(=O)NS(=O)(=O)N4[C@H](C)CCC[C@@H]4C)CC[C@@H]23)[C@@]2(C)CC[C@@H](O)C[C@@H]12 [Example 96],387,< 0.1
CC[C@H]1[C@@H](O)[C@@H]2[C@H](CC[C@]3(C)[C@@H]([C@H](C)CCNC(=O)NS(=O)(=O)N4C[C@H](C)C[C@H](C)C4)CC[C@@H]23)[C@@]2(C)CC[C@@H](O)C[C@@H]12 [Example 97],308,< 0.1
CC[C@H]1[C@@H](O)[C@@H]2[C@H](CC[C@]3(C)[C@@H]([C@H](C)CCNC(=O)NS(=O)(=O)N4C(C)CCC4C)CC[C@@H]23)[C@@]2(C)CC[C@@H](O)C[C@@H]12 (stereo partly shown) [Example 98],344,< 0.1
CC[C@H]1[C@@H](O)[C@@H]2[C@H](CC[C@]3(C)[C@@H]([C@H](C)CCNC(=O)NS(=O)(=O)N4CC(C)C(C)C4)CC[C@@H]23)[C@@]2(C)CC[C@@H](O)C[C@@H]12 (stereo partly shown) [Example 99],266,< 0.1
CC[C@H]1[C@@H](O)[C@@H]2[C@H](CC[C@]3(C)[C@@H]([C@H](C)CCNC(=O)NS(=O)(=O)c4nccs4)CC[C@@H]23)[C@@]2(C)CC[C@@H](O)C[C@@H]12 [Example 100],364,1 to 10
CC[C@H]1[C@@H](O)[C@@H]2[C@H](CC[C@]3(C)[C@@H]([C@H](C)CCNC(=O)NS(=O)(=O)C4CCC(C)(C)CC4)CC[C@@H]23)[C@@]2(C)CC[C@@H](O)C[C@@H]12 [Example 101],244,< 0.1
CC[C@H]1[C@@H](O)[C@@H]2[C@H](CC[C@]3(C)[C@@H]([C@H](C)CCNC(=O)NS(=O)(=O)c4cc(F)cc(F)c4)CC[C@@H]23)[C@@]2(C)CC[C@@H](O)C[C@@H]12 [Example 102],210,< 0.1
CC[C@H]1[C@@H](O)[C@@H]2[C@H](CC[C@]3(C)[C@@H]([C@H](C)CCNC(=O)NS(=O)(=O)c4cc(F)cc(OC)c4)CC[C@@H]23)[C@@]2(C)CC[C@@H](O)C[C@@H]12 [Example 103],328,< 0.1
CC[C@H]1[C@@H](O)[C@@H]2[C@H](CC[C@]3(C)[C@@H]([C@H](C)CCNC(=O)NS(=O)(=O)C(F)(F)F)CC[C@@H]23)[C@@]2(C)CC[C@@H](O)C[C@@H]12 [Example 104],298,1 to 10
CC[C@H]1[C@@H](O)[C@@H]2[C@H](CC[C@]3(C)[C@@H]([C@H](C)CCNC(=O)NS(=O)(=O)Nc4ccc(C(C)(C)C)cc4)CC[C@@H]23)[C@@]2(C)CC[C@@H](O)C[C@@H]12 [Example 105],322,0.1 to 1
CC[C@H]1[C@@H](O)[C@@H]2[C@H](CC[C@]3(C)[C@@H]([C@H](C)CCNC(=O)NS(=O)(=O)c4ccc(C5(C(F)(F)F)CC5)cc4)CC[C@@H]23)[C@@]2(C)CC[C@@H](O)C[C@@H]12 [Example 106],281,< 0.1
CC[C@H]1[C@@H](O)[C@@H]2[C@H](CC[C@]3(C)[C@@H]([C@H](C)CCNC(=O)NS(=O)(=O)c4cccc5ncccc45)CC[C@@H]23)[C@@]2(C)CC[C@@H](O)C[C@@H]12 [Example 107],311,0.1 to 1
CC[C@H]1[C@@H](O)[C@@H]2[C@H](CC[C@]3(C)[C@@H]([C@H](C)CCNC(=O)NS(=O)(=O)c4ccc(-c5ccccc5)s4)CC[C@@H]23)[C@@]2(C)CC[C@@H](O)C[C@@H]12 [Example 108],203,0.1 to 1
